From patent publication US7005537B2, “Production of esters” (ExxonMobil Chemical Patents Inc., priority 1999, dated 2006)

Assays:
Format in all cases: physicochemical
Fluid solvent properties = assay: Fluid solvent properties
Source text: One of ordinary skill in the art can readily determine the flash point of a fluid or blend (e.g., ASTM D92-78).

Reid Vapor Pressure = assay: Reid Vapor Pressure
Source text: The invention also includes producing a gasoline fuel containing an ester for use in internal combustion engines, wherein the ester has a Reid Vapor Pressure less than about 4 pounds per square inch. An important factor in determining a compound's ozone formation potential includes the compound's vapor pressure. Compounds with relatively high vapor pressures are more likely to volatilize into the atmosphere from open sources. Potential open sources include, for example, sources from production, distribution, storage and/or combustion of fuels containing oxygenates. The C7 to C14 esters according to the invention are expected to have low vapor pressures in comparison to MTBE and some other oxygenates. Preferably, the esters have a RVP less than about 3.5 psi. More preferably, less than about 3.0 or 2.0 psi. For example, Methyl Pivalate has a Reid Vapor Pressure of about 1.6 psi.

[1] = Stability of solvent to acid catalyst (pTSA) in acrylic solvent system, GC; conditions: for Wt. % of Solvent At One Week Decomposition Period / Wt. % of Solvent At Three Week Decomposition Period: 0.5 wt % pTSA, 50° C., nitrogen, 100 at start of test
Description: Acrylic solvent systems were prepared to test the stability of methyl pivalate to acid catalysts, which are commonly present in coating compositions. The formulations contained 29.9 wt % MP, 28.7 wt % pentyl acetate, 20.2 wt % n-butyl acetate, 16.1 wt % n-butyl alcohol, 3.6 wt % methyl ethyl ketone, 1.5 wt % isopropyl alcohol. 2 wt % toluene as an internal standard. The latter materials were purchased from Aldrich Chemical Co.
Para toluene sulfonic acid (pTSA) was added to the above formulation (again, pTSA was purchased from Aldrich Chemical Co.), in the amount of 0.5 wt %. The solutions were sealed and placed in an oven at 50° C. under a nitrogen atmosphere. Samples were withdrawn at intervals for testing. The content of methyl pivalate was monitored over time by gas chromatographic analysis using an HP 5890 gas chromatograph. In a parallel experiment an equal amount of tert butyl acetate was used instead of methyl pivalate. The results are shown below in Table 7 (all percentages are by weight).

Structure (SMILES) | Hansen Solubility Parameter H-Bonding (Fluid solvent properties) | Hansen Solubility Parameter Nonpolar (Fluid solvent properties) | Hansen Solubility Parameter Polar (Fluid solvent properties) | Hansen Solubility Parameter Total (Fluid solvent properties) | Surface Tension (Fluid solvent properties) | Reid Vapor Pressure (Reid Vapor Pressure) | stability to acid catalysts (in words) [1] | Wt. % of Solvent At One Week Decomposition Period [1] [Wt. %] | Wt. % of Solvent At Three Week Decomposition Period [1] [Wt. %] | Flash Point (Fluid solvent properties) [°C]
CC(C)=O [Acetone] | 3.4 | 7.6 | 5.1 | 9.2 | 22.3 |  |  |  |  | 
COC(=O)C(C)(C)C [Methyl Pivalate, methyl pivalate (methyl 1,1,1-trimethyl acetate)] |  |  |  |  | 23.8 | about 1.6 psi | more stable to acid catalysts than is t-butyl acetate | 88.0 | 65.1 | 7
CC(=O)OC(C)(C)C [t-butyl acetate, tertiary butyl acetate] |  |  |  |  |  |  | not inert with respect to acids | 65.9 | 24.1 | 
